Assay results as given in paper PMC3195361 (Bioorganic & medicinal chemistry, 2011).
Each block holds one molecule with its values, some of them ahead of it.

Experiments:
[1] = 5 mg/kg based on paclitaxel, 5 injections; data not shown
[2] = system: H2009 cells; assay: Cell cycle analysis by PI DNA staining and flow cytometry; format: cell-based, Human; conditions: for effect on cell cycle: H2009 cells
[3] = system: H2009 xenograft; format: in vivo, NOD/SCID mice; conditions: 5 mg/kg based on paclitaxel; for tumor growth rate compared to saline: i.v. tail vein, days 18, 21, 24, 27, 30
[4] = system: H2009 cells; assay: Cell viability assay; format: cell-based, Human; conditions: for IC50: 10 min exposure followed by 120 h recovery in media
[5] = system: H460 cells; assay: Cell viability assay; format: cell-based, Human; conditions: H460.1 column; 10 min exposure followed by 120 h recovery in media
[6] = system: integrin αvβ6; conditions: read-out: half-maximal binding affinity; tetramerized H2009.1 peptide; cited from earlier work
[7] = system: porcine esterase
[8] = Solubility of the peptide-paclitaxel conjugates; format: physicochemical; conditions: cold water; white powder
[9] = PBS pH 7.4, 37° C, after 96 hours
[10] = system: H2009 cells (αvβ6-positive); format: binding, Human; conditions: fluorescein-labeled conjugate, 1 hour, flow cytometry
[11] = 1 μM paclitaxel column, time not printed in table (24 h elsewhere in the source)

animal weights [1]: remained steady | IC50 [4]: 14.8 ± 3.3 nM | IC50 [5]: 23.6 ± 7.4 nM
Compound: CC(=O)O[C@H]1C(=O)[C@@]2(C)[C@H]([C@H](OC(=O)c3ccccc3)[C@]3(O)C[C@H](OC(=O)[C@H](O)[C@@H](NC(=O)c4ccccc4)c4ccccc4)C(C)=C1C3(C)C)[C@]1(OC(C)=O)CO[C@@H]1C[C@@H]2O [Paclitaxel, reference compound]
G2/M [2, 11]: 73.5 | Polyploid [2, 11]: 14 | S [2, 11]: 4.1 | effect on cell cycle ([2]; 1 μM, at 24 h): G2/M cell cycle arrest was observed | tumor growth rate compared to saline [3]: slowed | effect on cell viability within the first 48 h ([4]; 1 μM for 10 min, then recovery): rapid reduction of cell viability

Compound: CC(C)C[C@H](NC(=O)[C@H](CCC(N)=O)NC(=O)[C@H](CCCNC(=N)N)NC(=O)[C@H](CC(C)C)NC(=O)[C@@H](NC(=O)[C@H](C)NC(=O)[C@H](CC(C)C)NC(=O)[C@H](CC(=O)O)NC(=O)CNC(=O)[C@@H](N)CCCNC(=N)N)[C@@H](C)O)C(=O)NCCOCCOCCOCCOCCOCCOCCOCCOCCOCCOCCOCCOCCC(=O)N[C@@H](CSC1CC(=O)N(CCC(=O)NCCCC[C@H](NC(=O)CCN2C(=O)CC(SC[C@H](NC(=O)CCOCCOCCOCCOCCOCCOCCOCCOCCOCCOCCOCCOCCNC(=O)[C@H](CC(C)C)NC(=O)[C@H](CCC(N)=O)NC(=O)[C@H](CCCNC(=N)N)NC(=O)[C@H](CC(C)C)NC(=O)[C@@H](NC(=O)[C@H](C)NC(=O)[C@H](CC(C)C)NC(=O)[C@H](CC(=O)O)NC(=O)CNC(=O)[C@@H](N)CCCNC(=N)N)[C@@H](C)O)C(N)=O)C2=O)C(=O)NCCCC[C@H](NC(=O)[C@H](CCCCNC(=O)CCN2C(=O)CC(SC[C@H](NC(=O)CCOCCOCCOCCOCCOCCOCCOCCOCCOCCOCCOCCOCCNC(=O)[C@H](CC(C)C)NC(=O)[C@H](CCC(N)=O)NC(=O)[C@H](CCCNC(=N)N)NC(=O)[C@H](CC(C)C)NC(=O)[C@@H](NC(=O)[C@H](C)NC(=O)[C@H](CC(C)C)NC(=O)[C@H](CC(=O)O)NC(=O)CNC(=O)[C@@H](N)CCCNC(=N)N)[C@@H](C)O)C(N)=O)C2=O)NC(=O)CCN2C(=O)CC(SC[C@H](NC(=O)CCOCCOCCOCCOCCOCCOCCOCCOCCOCCOCCOCCOCCNC(=O)[C@H](CC(C)C)NC(=O)[C@H](CCC(N)=O)NC(=O)[C@H](CCCNC(=N)N)NC(=O)[C@H](CC(C)C)NC(=O)[C@@H](NC(=O)[C@H](C)NC(=O)[C@H](CC(C)C)NC(=O)[C@H](CC(=O)O)NC(=O)CNC(=O)[C@@H](N)CCCNC(=N)N)[C@@H](C)O)C(N)=O)C2=O)C(=O)N[C@@H](CS)C(=O)NCCC(=O)O)C1=O)C(N)=O (stereo partly drawn) [compound 2]
EC50 [6]: 0.05 nM

Compound: CC(=O)O[C@H]1C(=O)[C@@]2(C)[C@H]([C@H](OC(=O)c3ccccc3)[C@]3(O)C[C@H](OC(=O)[C@H](OC(=O)CCN4C(=O)CC(SC[C@H](NC(=O)[C@H](CCCCNC(=O)[C@H](CCCCNC(=O)CCN5C(=O)CC(SC[C@H](NC(=O)CCOCCOCCOCCOCCOCCOCCOCCOCCOCCOCCOCCOCCNC(=O)[C@H](CC(C)C)NC(=O)[C@H](CCC(N)=O)NC(=O)[C@H](CCCNC(=N)N)NC(=O)[C@H](CC(C)C)NC(=O)[C@@H](NC(=O)[C@H](C)NC(=O)[C@H](CC(C)C)NC(=O)[C@H](CC(=O)O)NC(=O)CNC(=O)[C@@H](N)CCCNC(=N)N)[C@@H](C)O)C(N)=O)C5=O)NC(=O)CCN5C(=O)CC(SC[C@H](NC(=O)CCOCCOCCOCCOCCOCCOCCOCCOCCOCCOCCOCCOCCNC(=O)[C@H](CC(C)C)NC(=O)[C@H](CCC(N)=O)NC(=O)[C@H](CCCNC(=N)N)NC(=O)[C@H](CC(C)C)NC(=O)[C@@H](NC(=O)[C@H](C)NC(=O)[C@H](CC(C)C)NC(=O)[C@H](CC(=O)O)NC(=O)CNC(=O)[C@@H](N)CCCNC(=N)N)[C@@H](C)O)C(N)=O)C5=O)NC(=O)[C@H](CCCCNC(=O)CCN5C(=O)CC(SC[C@H](NC(=O)CCOCCOCCOCCOCCOCCOCCOCCOCCOCCOCCOCCOCCNC(=O)[C@H](CC(C)C)NC(=O)[C@H](CCC(N)=O)NC(=O)[C@H](CCCNC(=N)N)NC(=O)[C@H](CC(C)C)NC(=O)[C@@H](NC(=O)[C@H](C)NC(=O)[C@H](CC(C)C)NC(=O)[C@H](CC(=O)O)NC(=O)CNC(=O)[C@@H](N)CCCNC(=N)N)[C@@H](C)O)C(N)=O)C5=O)NC(=O)CCN5C(=O)CC(SC[C@H](NC(=O)CCOCCOCCOCCOCCOCCOCCOCCOCCOCCOCCOCCOCCNC(=O)[C@H](CC(C)C)NC(=O)[C@H](CCC(N)=O)NC(=O)[C@H](CCCNC(=N)N)NC(=O)[C@H](CC(C)C)NC(=O)[C@@H](NC(=O)[C@H](C)NC(=O)[C@H](CC(C)C)NC(=O)[C@H](CC(=O)O)NC(=O)CNC(=O)[C@@H](N)CCCNC(=N)N)[C@@H](C)O)C(N)=O)C5=O)C(=O)NCCC(=O)O)C4=O)[C@@H](NC(=O)c4ccccc4)c4ccccc4)C(C)=C1C3(C)C)[C@]1(OC(C)=O)CO[C@@H]1C[C@@H]2O (stereo partly drawn) [compound 3]
increase of paclitaxel release with esterase versus PBS ([7]; esterase in PBS vs PBS): 7 fold | paclitaxel released ([7]; porcine esterase (18u/mL) in PBS, 37° C, by 48 h): 34.1% | G1 ([2]; 1 μM, 24 h): 44.9 | G2/M ([2]; 1 μM, 24 h): 39.0 | Polyploid ([2]; 1 μM, 24 h): 8.0 | S ([2]; 1 μM, 24 h): 8.1 | G1 ([2]; 1 μM, 48 h): 11.4 | G2/M ([2]; 1 μM, 48 h): 57.1 | Polyploid ([2]; 1 μM, 48 h): 26.9 | S ([2]; 1 μM, 48 h): 4.5 | increase in number of cells in G2/M ([2]; 1 μM, at 48 h): ~ 2 fold | increase in polyploid cells ([2]; 1 μM, at 48 h): 3 fold | G1 ([2]; 5 μM, 24 h): 35.8 | G2/M ([2]; 5 μM, 24 h): 45.8 | Polyploid ([2]; 5 μM, 24 h): 11.7 | S ([2]; 5 μM, 24 h): 6.7 | G1 ([2]; 5 μM, 48 h): 23.9 | G2/M ([2]; 5 μM, 48 h): 53.9 | Polyploid ([2]; 5 μM, 48 h): 23.6 | S ([2]; 5 μM, 48 h): 8.5 | effect on cell cycle ([2]; 1 μM, at 24 h): the cell cycle remains unperturbed | more G2/M arrest at increased conjugate concentration ([2]; increased concentration (5 μM in Table II), at 24 h): Approximately 50% | solubility [8]: soluble in cold water | delay of effect on tumor growth relative to free drug [3]: 7 days | tumor growth rate compared to saline [3]: reduced the rate of tumor growth compared to saline | time at which reduction of cell viability begins ([4]; 1 μM for 10 min, then recovery): 72 h | paclitaxel released [9]: minimal paclitaxel was released | IC50 [5]: Not Reached ^b

Compound: CC(=O)O[C@H]1C(=O)[C@@]2(C)[C@H]([C@H](OC(=O)c3ccccc3)[C@]3(O)C[C@H](OC(=O)[C@H](OC(=O)CCN4C(=O)CC(SC[C@H](NC(=O)[C@H](CCCCNC(=O)[C@H](CCCCNC(=O)CCN5C(=O)CC(SC[C@H](NC(=O)CCOCCOCCOCCOCCOCCOCCOCCOCCOCCOCCOCCOCCNC(=O)[C@H](CCCNC(=N)N)NC(=O)[C@H](CC(C)C)NC(=O)[C@@H](NC(=O)CNC(=O)[C@H](CCC(N)=O)NC(=O)[C@H](CC(C)C)NC(=O)[C@H](CCCNC(=N)N)NC(=O)[C@H](CC(C)C)NC(=O)[C@H](C)NC(=O)[C@@H](N)CC(=O)O)[C@@H](C)O)C(N)=O)C5=O)NC(=O)CCN5C(=O)CC(SC[C@H](NC(=O)CCOCCOCCOCCOCCOCCOCCOCCOCCOCCOCCOCCOCCNC(=O)[C@H](CCCNC(=N)N)NC(=O)[C@H](CC(C)C)NC(=O)[C@@H](NC(=O)CNC(=O)[C@H](CCC(N)=O)NC(=O)[C@H](CC(C)C)NC(=O)[C@H](CCCNC(=N)N)NC(=O)[C@H](CC(C)C)NC(=O)[C@H](C)NC(=O)[C@@H](N)CC(=O)O)[C@@H](C)O)C(N)=O)C5=O)NC(=O)[C@H](CCCCNC(=O)CCN5C(=O)CC(SC[C@H](NC(=O)CCOCCOCCOCCOCCOCCOCCOCCOCCOCCOCCOCCOCCNC(=O)[C@H](CCCNC(=N)N)NC(=O)[C@H](CC(C)C)NC(=O)[C@@H](NC(=O)CNC(=O)[C@H](CCC(N)=O)NC(=O)[C@H](CC(C)C)NC(=O)[C@H](CCCNC(=N)N)NC(=O)[C@H](CC(C)C)NC(=O)[C@H](C)NC(=O)[C@@H](N)CC(=O)O)[C@@H](C)O)C(N)=O)C5=O)NC(=O)CCN5C(=O)CC(SC[C@H](NC(=O)CCOCCOCCOCCOCCOCCOCCOCCOCCOCCOCCOCCOCCNC(=O)[C@H](CCCNC(=N)N)NC(=O)[C@H](CC(C)C)NC(=O)[C@@H](NC(=O)CNC(=O)[C@H](CCC(N)=O)NC(=O)[C@H](CC(C)C)NC(=O)[C@H](CCCNC(=N)N)NC(=O)[C@H](CC(C)C)NC(=O)[C@H](C)NC(=O)[C@@H](N)CC(=O)O)[C@@H](C)O)C(N)=O)C5=O)C(=O)NCCC(=O)O)C4=O)[C@@H](NC(=O)c4ccccc4)c4ccccc4)C(C)=C1C3(C)C)[C@]1(OC(C)=O)CO[C@@H]1C[C@@H]2O (stereo partly drawn) [scrambled peptide-paclitaxel conjugate]
binding to H2009 cells [10]: no binding was observed | solubility [8]: soluble in cold water | IC50 [4]: Not Reached ^b | IC50 [5]: Not Reached ^b
